Test results taken from ChEMBL document CHEMBL1201862, “PubChem BioAssay data set” (2004).
Active and inactive are the calls of the source.

Assays:
Cytochrome P450 2D6 = Cytochrome P450 2D6 (Homo sapiens, UniProt P10635); experiment: qHTS Assay for Inhibitors and Substrates of Cytochrome P450 2D6. [Related pubchem assays: 410 ]; assay type: ADME; conditions: read-out: Potency
[1] = tested on: Streptococcus sp. 'group A'; experiment: growth inhibition of control SK(-) GAS strain, dose response, counter-screen for streptokinase expression inhibitor project, luminescence, kanamycin, BacTiterGlo, confirmation (AID 1900); assay type: functional, organism-based
[2] = target: Serine/threonine-protein phosphatase PP1-alpha catalytic subunit (Homo sapiens, UniProt P62136); experiment: PP1 phosphatase inhibitors, dose response, biochemical, fluorescence (AID 2403);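 also: phosphatase turnover of OMFP into fluorescent 3-O-methylfluorescein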
Streptokinase A = target: T1, Streptokinase A (Streptococcus pyogenes serotype M1, UniProt P10520); experiment: S. pyogenes streptokinase expression inhibitors, potency, dose response, plasminogen activation absorbance, OD405 (AID 1914); assay type: functional, Streptococcus pyogenes M1 GAS;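 also: secreted streptokinase activity via plasminogen activation per viability signal from cell pellet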
T1 sequence (P10520 whole entry): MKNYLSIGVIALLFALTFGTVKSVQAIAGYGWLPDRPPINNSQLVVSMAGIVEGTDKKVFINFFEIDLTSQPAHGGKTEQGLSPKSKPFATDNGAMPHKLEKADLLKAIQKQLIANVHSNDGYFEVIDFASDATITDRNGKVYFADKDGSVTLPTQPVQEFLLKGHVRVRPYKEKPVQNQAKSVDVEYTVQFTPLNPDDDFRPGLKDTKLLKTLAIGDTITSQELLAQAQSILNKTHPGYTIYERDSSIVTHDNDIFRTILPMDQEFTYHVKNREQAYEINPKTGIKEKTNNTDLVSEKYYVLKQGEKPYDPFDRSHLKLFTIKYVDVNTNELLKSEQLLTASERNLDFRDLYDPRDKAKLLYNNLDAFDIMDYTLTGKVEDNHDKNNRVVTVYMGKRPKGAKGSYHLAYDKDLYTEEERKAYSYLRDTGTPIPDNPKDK

[3] = inhibitors of intracellular T. cruzi replication, confirmation, NIH3T3 host cells, beta-gal luminescence (AID 2044); assay type: functional, cell-based;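 also: intracellular parasites grown in NIH/3T3 mouse fibroblasts as host cells; luminescent beta-galactosidase reporter signal from transgenic T. cruzi replicating inside host cells; inhibitors lower the luminescence signal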
[4] = target: Serine/threonine-protein phosphatase (Homo sapiens, UniProt Q9BPW0); experiment: Counterscreen for inhibitors of PP1: fluorescence-based biochemical high throughput dose response assay to identify inhibitors of Protein Phosphatase 5 (PP5). [Related pubchem assays: 2034 (Summary (PP5 inhibitors)), 1987 (PP5 inhibitors in singlate), 2235 (PP1 inhibitors in singlate)]
[5] = cytotoxicity toward NIH3T3 fibroblasts, dose response, counter-screen, cell-based, ATP luminescence, mouse fibroblasts (AID 2010); assay type: functional;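 also: cells exposed to compound for about 90 hours before reading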
Streptococcus = experiment: Group A Streptococcus viability loss, dose response, counter-screen for streptokinase expression inhibitor project, luminescence, BacTiterGlo (AID 1915); assay type: functional, organism-based;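 also: potency for reduction of bacterial viability or growth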
INS1 = experiment: beta cell apoptosis inhibitors, cytokine rescue, dose response, luminescence, retest (AID 449756); assay type: functional, cell-based; conditions: Rattus norvegicus;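 also: cell death triggered by IL-1 beta plus TNF-alpha plus IFN-gamma mixture; protective hits raise ATP signal compared with cytokine alone wells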
[6] = target: G-protein coupled receptor 55 (Homo sapiens, UniProt Q9Y2T6); experiment: GPR55 agonists via beta-arrestin recruitment, primary screen, imaging, U2OS cells, beta-arrestin-GFP redistribution (AID 1961); assay type: functional
G-protein coupled receptor 55, sequence (Q9Y2T6 whole entry): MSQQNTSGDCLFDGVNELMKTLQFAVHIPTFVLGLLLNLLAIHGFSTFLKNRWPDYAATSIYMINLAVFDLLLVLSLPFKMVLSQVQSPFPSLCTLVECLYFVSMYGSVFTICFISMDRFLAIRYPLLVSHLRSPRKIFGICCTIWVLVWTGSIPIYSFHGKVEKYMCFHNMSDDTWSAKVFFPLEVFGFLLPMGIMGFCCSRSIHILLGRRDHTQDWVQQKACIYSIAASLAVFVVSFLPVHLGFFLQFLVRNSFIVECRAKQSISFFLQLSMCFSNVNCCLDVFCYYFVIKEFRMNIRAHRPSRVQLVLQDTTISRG

[7] = target: Voltage-dependent T-type calcium channel subunit alpha-1H (Homo sapiens, UniProt O95180); assay type: functional;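 also: channel activity triggered by adding a high calcium stimulation buffer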
Voltage-dependent T-type calcium channel subunit alpha-1H, sequence (O95180 whole entry): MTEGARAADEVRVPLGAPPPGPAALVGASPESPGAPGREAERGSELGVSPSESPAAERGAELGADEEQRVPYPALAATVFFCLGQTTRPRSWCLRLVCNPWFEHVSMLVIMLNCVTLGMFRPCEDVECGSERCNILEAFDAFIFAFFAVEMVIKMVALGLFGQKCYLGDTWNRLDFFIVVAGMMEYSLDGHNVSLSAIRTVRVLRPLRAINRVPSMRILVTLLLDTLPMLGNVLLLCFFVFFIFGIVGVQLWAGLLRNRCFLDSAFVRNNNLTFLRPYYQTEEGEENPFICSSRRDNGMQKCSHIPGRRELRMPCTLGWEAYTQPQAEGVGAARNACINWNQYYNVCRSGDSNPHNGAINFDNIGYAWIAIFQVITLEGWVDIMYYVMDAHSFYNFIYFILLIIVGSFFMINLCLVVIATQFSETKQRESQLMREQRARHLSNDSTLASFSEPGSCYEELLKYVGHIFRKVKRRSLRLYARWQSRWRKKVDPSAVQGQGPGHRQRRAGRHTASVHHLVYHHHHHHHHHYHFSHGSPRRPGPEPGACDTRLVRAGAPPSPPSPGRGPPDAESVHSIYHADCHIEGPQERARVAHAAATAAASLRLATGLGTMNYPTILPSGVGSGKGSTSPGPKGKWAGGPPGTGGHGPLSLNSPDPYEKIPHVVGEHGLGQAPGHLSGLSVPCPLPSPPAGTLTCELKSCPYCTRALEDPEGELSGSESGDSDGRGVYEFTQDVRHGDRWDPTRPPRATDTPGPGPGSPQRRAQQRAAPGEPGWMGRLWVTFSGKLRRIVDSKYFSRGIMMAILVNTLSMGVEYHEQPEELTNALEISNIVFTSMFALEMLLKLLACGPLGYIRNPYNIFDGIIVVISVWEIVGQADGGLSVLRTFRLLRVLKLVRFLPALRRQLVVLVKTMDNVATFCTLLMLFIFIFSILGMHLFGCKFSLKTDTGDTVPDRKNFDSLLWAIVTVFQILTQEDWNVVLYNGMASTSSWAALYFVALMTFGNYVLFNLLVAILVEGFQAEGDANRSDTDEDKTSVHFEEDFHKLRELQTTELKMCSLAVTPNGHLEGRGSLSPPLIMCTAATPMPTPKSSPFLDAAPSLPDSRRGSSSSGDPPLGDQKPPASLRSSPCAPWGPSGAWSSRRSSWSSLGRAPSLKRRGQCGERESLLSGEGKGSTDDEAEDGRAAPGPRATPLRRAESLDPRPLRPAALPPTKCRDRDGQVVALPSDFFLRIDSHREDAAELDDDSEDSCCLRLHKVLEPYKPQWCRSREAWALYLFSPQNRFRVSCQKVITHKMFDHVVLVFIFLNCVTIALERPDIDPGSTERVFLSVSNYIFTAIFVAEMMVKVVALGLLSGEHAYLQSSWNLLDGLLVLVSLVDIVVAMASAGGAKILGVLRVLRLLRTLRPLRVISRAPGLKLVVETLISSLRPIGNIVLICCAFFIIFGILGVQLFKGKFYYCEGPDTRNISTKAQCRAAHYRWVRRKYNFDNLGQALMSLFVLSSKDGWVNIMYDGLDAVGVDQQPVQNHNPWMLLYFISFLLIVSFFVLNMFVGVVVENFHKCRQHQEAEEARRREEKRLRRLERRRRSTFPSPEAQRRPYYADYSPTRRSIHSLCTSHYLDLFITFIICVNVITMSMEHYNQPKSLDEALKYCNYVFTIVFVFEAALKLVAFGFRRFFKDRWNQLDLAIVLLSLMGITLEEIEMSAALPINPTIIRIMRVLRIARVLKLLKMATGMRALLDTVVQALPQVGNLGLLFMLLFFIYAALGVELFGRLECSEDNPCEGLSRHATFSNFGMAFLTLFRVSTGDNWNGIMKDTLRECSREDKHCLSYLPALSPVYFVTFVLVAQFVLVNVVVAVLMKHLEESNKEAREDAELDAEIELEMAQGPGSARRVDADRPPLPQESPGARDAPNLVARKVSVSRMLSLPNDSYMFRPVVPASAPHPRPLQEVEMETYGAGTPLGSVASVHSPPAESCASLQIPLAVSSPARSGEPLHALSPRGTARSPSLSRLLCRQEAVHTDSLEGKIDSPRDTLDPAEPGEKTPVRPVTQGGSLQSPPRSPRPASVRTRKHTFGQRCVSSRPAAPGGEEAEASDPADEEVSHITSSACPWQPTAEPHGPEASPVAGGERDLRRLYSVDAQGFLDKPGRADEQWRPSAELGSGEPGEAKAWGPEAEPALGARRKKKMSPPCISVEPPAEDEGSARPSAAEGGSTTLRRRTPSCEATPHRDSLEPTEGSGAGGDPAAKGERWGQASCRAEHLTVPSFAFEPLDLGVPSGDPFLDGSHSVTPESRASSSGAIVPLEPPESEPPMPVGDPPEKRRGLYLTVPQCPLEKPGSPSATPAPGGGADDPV

H9c2 = experiment: cells; assay type: functional, cell-based; conditions: Rattus norvegicus, H9c2, Myocardium;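 also: confirmatory concentration-response retest of ultra-high-throughput screening hits for modulation of myocardial damage; cell death induced by hydrogen peroxide oxidative stress; compound pretreatment for 60 min then peroxide exposure for 2 h; potency is for protecting the cells against peroxide damage rather than for killing them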
Protein Rev = Protein Rev (Human immunodeficiency virus type 1 group M subtype B (isolate HXB2)(HIV-1), UniProt P04618); experiment: inhibitors of Rev binding to RRE RNA, dose response, biochemical, fluorescence polarization, HIV-1 (AID 434976); parameters: species or system Human immunodeficiency virus 1
Protein Rev, sequence (P04618 whole entry): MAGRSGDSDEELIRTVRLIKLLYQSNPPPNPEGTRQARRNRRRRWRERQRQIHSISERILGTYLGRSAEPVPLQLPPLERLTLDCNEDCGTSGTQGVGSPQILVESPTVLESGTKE

[8] = target: Female germline-specific tumor suppressor gld-1 (Caenorhabditis elegans, UniProt Q17339); experiment: inhibitors of GLD-1 binding to TGE RNA, dose response, biochemical, fluorescence polarization, C. elegans (AID 2802);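 also: fluorescence polarization of labeled TGE RNA bound by purified gld-1 protein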
Female germline-specific tumor suppressor gld-1, sequence (Q17339 whole entry): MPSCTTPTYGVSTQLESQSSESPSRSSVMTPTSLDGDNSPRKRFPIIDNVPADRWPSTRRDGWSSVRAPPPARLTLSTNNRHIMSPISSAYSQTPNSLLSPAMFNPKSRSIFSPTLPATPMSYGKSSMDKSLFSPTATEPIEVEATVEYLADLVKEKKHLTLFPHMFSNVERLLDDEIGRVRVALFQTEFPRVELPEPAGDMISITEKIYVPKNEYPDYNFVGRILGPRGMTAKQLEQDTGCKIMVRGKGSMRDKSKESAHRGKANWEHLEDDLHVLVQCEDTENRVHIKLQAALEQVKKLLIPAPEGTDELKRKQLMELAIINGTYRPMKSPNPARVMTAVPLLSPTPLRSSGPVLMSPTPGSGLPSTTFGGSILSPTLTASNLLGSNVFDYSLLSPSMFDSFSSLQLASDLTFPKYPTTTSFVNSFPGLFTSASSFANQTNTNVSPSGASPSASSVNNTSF

[9] = target: T2, Polyadenylate-binding protein 1 (Homo sapiens, UniProt P11940); experiment: PABP1 MLLE–PAM2 interaction inhibitors, dose response, miRNA deadenylation inhibitor project, biochemical, fluorescence polarization, Cy5-PAM2 peptide, secondary (AID 602260); assay type: functional; conditions: read-out: IC50_Mean
T2 sequence (P11940 whole entry): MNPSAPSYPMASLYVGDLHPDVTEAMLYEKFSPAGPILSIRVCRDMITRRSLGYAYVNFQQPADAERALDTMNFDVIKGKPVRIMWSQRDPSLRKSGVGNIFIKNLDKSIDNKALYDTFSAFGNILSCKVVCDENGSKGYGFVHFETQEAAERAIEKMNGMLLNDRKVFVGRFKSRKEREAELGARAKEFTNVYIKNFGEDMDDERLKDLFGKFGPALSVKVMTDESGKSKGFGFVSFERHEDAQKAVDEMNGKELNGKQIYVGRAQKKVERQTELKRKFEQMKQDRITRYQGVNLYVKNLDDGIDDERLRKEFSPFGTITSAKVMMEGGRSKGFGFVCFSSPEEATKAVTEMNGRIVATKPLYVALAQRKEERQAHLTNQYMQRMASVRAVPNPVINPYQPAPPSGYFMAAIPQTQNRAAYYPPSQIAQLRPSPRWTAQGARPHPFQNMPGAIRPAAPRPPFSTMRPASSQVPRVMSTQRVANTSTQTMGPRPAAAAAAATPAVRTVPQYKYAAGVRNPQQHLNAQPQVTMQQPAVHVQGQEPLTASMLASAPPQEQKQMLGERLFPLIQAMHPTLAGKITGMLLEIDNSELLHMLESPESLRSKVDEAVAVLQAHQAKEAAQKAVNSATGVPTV

[10] = target: T2, Polyadenylate-binding protein 1; experiment: PABP1 MLLE–PAM2 binding inhibitor potency, dose response, biochemical, fluorescence polarization, FITC-PAM2 peptide (AID 602259); assay type: functional; conditions: read-out: IC50_Mean
[11] = target: T3, Tyrosine-protein phosphatase non-receptor type 7 (Homo sapiens, UniProt P35236); assay type: functional
T3 sequence (P35236 whole entry): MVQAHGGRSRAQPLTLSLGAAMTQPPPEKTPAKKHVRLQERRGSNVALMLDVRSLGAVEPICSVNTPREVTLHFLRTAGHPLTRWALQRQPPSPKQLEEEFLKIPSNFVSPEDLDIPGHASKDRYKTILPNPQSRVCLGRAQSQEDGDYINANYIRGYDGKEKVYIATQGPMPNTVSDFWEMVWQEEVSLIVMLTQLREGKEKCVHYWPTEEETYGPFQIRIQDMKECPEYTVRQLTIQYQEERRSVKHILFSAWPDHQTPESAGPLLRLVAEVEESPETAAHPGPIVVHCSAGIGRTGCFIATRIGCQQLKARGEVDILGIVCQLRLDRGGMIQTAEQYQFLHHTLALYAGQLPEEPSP

[12] = target: Glyceraldehyde-3-phosphate dehydrogenase (Homo sapiens, UniProt P04406)
Glyceraldehyde-3-phosphate dehydrogenase, sequence (P04406 whole entry): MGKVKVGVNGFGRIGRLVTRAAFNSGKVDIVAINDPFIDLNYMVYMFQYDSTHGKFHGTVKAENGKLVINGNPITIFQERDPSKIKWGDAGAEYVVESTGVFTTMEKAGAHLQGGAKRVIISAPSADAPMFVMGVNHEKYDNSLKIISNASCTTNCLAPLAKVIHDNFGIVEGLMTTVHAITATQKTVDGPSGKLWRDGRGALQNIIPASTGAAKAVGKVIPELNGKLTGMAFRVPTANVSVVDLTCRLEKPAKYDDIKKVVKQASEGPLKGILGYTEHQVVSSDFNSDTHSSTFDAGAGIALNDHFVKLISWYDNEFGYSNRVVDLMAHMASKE

[13] = target: T4, Dual specificity protein phosphatase 6 (Rattus norvegicus, UniProt Q64346)
T4 sequence (Q64346 whole entry): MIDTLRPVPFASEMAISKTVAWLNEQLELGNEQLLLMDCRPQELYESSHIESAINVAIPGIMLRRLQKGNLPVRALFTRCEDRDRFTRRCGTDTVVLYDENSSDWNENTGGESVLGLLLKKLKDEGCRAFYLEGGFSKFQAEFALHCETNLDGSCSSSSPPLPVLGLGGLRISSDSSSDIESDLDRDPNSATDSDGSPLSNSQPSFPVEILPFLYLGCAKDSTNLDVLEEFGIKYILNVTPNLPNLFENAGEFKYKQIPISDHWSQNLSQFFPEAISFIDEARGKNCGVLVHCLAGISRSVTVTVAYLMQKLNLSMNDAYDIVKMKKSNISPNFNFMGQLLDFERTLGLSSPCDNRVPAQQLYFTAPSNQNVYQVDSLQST

[14] = target: T4, Dual specificity protein phosphatase 6; assay type: functional
Cytochrome P450 2C19 = Cytochrome P450 2C19 (Homo sapiens, UniProt P33261); experiment: qHTS Assay for Inhibitors and Substrates of Cytochrome P450 2C19. [Related pubchem assays: 410 ]; assay type: ADME; conditions: read-out: Potency
[15] = target: Lysosomal acid glucosylceramidase (Homo sapiens, UniProt P04062); experiment: Dose response cell-based high throughput screening assay to identify enhancers of beta-glucosidase activity. [Related pubchem assays: 784 ]; assay type: functional
Lysosomal acid glucosylceramidase, sequence (P04062 whole entry): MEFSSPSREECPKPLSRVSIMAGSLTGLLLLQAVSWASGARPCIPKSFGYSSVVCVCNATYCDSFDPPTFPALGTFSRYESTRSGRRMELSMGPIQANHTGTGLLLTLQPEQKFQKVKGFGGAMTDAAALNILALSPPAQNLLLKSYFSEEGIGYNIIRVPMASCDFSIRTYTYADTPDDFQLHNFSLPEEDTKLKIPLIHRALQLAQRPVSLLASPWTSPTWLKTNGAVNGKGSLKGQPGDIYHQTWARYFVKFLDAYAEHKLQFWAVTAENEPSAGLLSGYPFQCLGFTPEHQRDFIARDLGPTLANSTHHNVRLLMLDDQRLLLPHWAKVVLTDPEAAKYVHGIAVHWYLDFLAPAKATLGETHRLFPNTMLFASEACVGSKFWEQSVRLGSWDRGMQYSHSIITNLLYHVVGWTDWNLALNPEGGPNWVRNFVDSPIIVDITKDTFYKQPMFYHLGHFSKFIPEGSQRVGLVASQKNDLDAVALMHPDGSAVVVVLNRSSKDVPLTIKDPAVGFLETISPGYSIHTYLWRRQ

[16] = A cytotoxicity screen of small molecule inhibitors of the PhoP region in Salmonella typhi identified in the primary screen. [Related pubchem assays: 1850, 1864, 1985 ]; assay type: functional
[17] = luciferase reporter signal reduction – luminescence, H4-C neuroglioblastoma cells, dose response (AID 2458); assay type: functional, cell-based;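 also: H4 neuroglioblastoma cells stably carrying a luciferase reporter gene fusion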
[18] = target: T5, RNA-binding protein pos-1 (Caenorhabditis elegans, UniProt G5EF15); experiment: inhibitors of POS-1/mex-3 RNA binding, dose response, biochemical, fluorescence polarization (AID 1964);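 also: purified POS-1 fused to maltose binding protein made in E. coli; potency of compounds blocking POS-1 binding to fluorescent RNA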
T5 sequence (G5EF15 whole entry): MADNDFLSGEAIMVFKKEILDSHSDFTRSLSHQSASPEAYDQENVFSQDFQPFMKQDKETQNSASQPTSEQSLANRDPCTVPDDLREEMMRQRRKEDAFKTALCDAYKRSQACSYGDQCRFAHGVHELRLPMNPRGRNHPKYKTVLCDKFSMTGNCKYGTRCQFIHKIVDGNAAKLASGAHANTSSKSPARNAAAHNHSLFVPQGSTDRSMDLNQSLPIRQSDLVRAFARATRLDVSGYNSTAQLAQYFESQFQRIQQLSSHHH

cells = assay type: functional, cell-based
[19] = target: T6, Zinc finger protein mex-5 (Caenorhabditis elegans, UniProt Q9XUB2); experiment: MEX-5/TCR-2 RNA interaction inhibitors, dose response, biochemical, C. elegans, fluorescence polarization (AID 1960)
T6 sequence (Q9XUB2 whole entry): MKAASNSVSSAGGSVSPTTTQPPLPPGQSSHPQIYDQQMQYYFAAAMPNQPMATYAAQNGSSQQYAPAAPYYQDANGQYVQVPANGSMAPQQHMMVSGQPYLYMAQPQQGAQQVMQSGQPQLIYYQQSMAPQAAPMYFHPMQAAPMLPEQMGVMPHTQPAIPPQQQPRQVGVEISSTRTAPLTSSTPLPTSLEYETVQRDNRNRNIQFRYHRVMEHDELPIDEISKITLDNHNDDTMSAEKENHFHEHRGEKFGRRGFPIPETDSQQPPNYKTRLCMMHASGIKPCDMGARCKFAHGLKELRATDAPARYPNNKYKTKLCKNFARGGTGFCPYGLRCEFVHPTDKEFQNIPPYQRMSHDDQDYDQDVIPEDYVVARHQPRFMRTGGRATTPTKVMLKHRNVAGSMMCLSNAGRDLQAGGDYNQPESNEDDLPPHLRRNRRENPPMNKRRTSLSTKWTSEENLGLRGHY

[20] = target: T7, Heat shock factor protein 1 (Mus musculus, UniProt P38532); experiment: inhibition of MG132-induced HSE-luciferase signal, confirmation, cell-based, NIH3T3, luminescence, dose retest (AID 2382); assay type: functional;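 also: NIH3T3 fibroblasts with HSF1-driven luciferase reporter stressed by proteasome inhibitor MG132; luminescence from HSF1-driven luciferase expression after 8 hours of MG132 stress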
T7 sequence (P38532 whole entry): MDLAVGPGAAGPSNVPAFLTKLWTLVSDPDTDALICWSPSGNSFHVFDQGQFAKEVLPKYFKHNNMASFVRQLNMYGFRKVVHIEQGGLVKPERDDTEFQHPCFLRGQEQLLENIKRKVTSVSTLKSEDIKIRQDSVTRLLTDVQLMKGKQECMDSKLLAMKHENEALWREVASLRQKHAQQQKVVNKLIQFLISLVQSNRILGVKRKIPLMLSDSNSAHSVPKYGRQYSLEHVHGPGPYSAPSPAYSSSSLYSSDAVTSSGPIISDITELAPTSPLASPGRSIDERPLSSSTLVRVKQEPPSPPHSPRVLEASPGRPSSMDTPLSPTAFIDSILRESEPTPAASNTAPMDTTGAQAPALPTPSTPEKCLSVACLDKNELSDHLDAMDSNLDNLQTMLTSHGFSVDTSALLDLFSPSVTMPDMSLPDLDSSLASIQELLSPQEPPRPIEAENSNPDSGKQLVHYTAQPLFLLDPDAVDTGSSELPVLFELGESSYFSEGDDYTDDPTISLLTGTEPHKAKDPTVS

[21] = inhibitors of SNCA 5'UTR-driven reporter translation, confirmation, H4 neuroglioma cells, luminescence (AID 1988); assay type: functional, cell-based
[22] = inhibitors of SNCA 5'UTR-driven translation, confirmation, luminescence, H4 neuroglioblastoma cells, dose confirmation (AID 2454); assay type: functional, cell-based;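 also: H4 neuroglioblastoma cells carrying an alpha-synuclein 5'UTR luciferase reporter; potency for inhibition of the luciferase signal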
[23] = target: DNA dC->dU-editing enzyme APOBEC-3A (Homo sapiens, UniProt P31941); experiment: APOBEC3A DNA deaminase inhibitors, dose response, biochemical (AID 504722); assay type: functional
DNA dC->dU-editing enzyme APOBEC-3A, sequence (P31941 whole entry): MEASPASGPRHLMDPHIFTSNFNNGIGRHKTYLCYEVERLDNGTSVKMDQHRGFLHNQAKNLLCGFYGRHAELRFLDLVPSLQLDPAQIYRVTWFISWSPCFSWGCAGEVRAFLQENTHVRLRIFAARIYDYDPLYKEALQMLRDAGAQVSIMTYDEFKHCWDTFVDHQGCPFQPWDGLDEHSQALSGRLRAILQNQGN

[24] = target: DNA dC->dU-editing enzyme APOBEC-3G (Homo sapiens, UniProt Q9HC16); experiment: Dose Response confirmation of small molecule APOBEC3G DNA Deaminase Inhibitors via a fluorescence-based single-stranded DNA deaminase assay. [Related pubchem assays (depositor defined):AID493012, AID493028]; assay type: functional

CC[C@@]12CCCN3CC[C@@]4(c5ccc(OC)c(O)c5N(C(C)=O)[C@H]4CC1)[C@H]32
AC50 (Cytochrome P450 2D6): 20 µM (inconclusive)

CCOC(=O)c1cnc(-n2nc(C)cc2C)nc1NCc1ccccc1
EC50 [1]: 8.49 µM (active)
IC50 [2]: 5.83 µM (active)
EC50 (Streptokinase A): > 150 µM (not active)
EC50 [3]: 2.09 µM (active)
IC50 [4]: > 67 µM (not active)
EC50 [5]: > 60 µM (not active)
EC50 (Streptococcus): 9.69 µM (active)
AC50 (INS1): 5.4 µM (active)

COc1cc(C(CC(=O)N2CCCC2)c2c(OC)cc(OC)c3c(-c4ccccc4)cc(=O)oc23)cc(OC)c1OC (configuration not stated)
EC50 [6]: 6.57 µM (active)

CCC(=O)N1CCN(c2ccccc2NC(=O)COc2cc(C)ccc2C(C)C)CC1
EC50 [7]: 2.97 µM (active)
IC50 (H9c2): > 79 µM (inactive)

O=c1[nH]c2cc3ccccc3cc2nc1C(F)(F)F
IC50 (Protein Rev): > 75.5 µM (not active)
IC50 [8]: 2.9 µM (active)
IC50 [9]: > 66 µM (inactive)
IC50 [10]: 46.2 µM (inactive)

COC(=O)c1cc2c(C)cc3ccc(C)cn3c-2c1C(=O)OC
IC50 (Protein Rev): 12.2 µM (not active)
IC50 [8]: > 2.21 µM (active)

CCCn1c(=O)nc(NCc2ccc(C)cc2)[nH]c1=O
IC50 [11]: > 100 µM (not active)
IC50 [12]: > 100 µM (not active)
IC50 [13]: > 100 µM (inactive)
IC50 [14]: > 100 µM (inactive)

C=CCCC/C=C(/C)C(OCc1ccc(OC)cc1)C(CC/C=C(\C)C(N)=O)OC (configuration not stated)
AC50 (Cytochrome P450 2C19): 2.51 µM (inconclusive)
AC50 (Cytochrome P450 2D6): 3.16 µM (inconclusive)

CCOC(=O)C1Nc2c(OC)cccc2C2OCCC12 (configuration not stated)
IC50 [11]: > 100 µM (not active)
IC50 [12]: > 100 µM (not active)
IC50 [13]: > 100 µM (inactive)
IC50 [14]: > 100 µM (inactive)

CCc1ccc(Nc2n[n+](-c3ccccc3)c(-c3cc(OC)c(OC)cc3Br)s2)cc1
EC50 [6]: 21.2 µM (inactive)

C=CCNC(=O)CCCOc1cc(C)ccc1C
EC50 [15]: > 50 µM (not active)

CCN(C1CCCCC1)S(=O)(=O)c1ccc(OC)c(C)c1
EC50 [16]: > 50 µM (active)
EC50 [7]: 3.88 µM (active)

Cc1cc(/C=c2/sc3nc4ccccc4n3c2=O)c(C)n1-c1ccccn1
EC50 [17]: 0.084 µM (active)
EC50 [18]: > 300 µM (not active)
EC50 (cells): 0.076 µM (active)
EC50 [19]: > 300 µM (not active)
EC50 [20]: < 0.16 µM (active)
EC50 [21]: < 0.1 µM (active)
EC50 [22]: 0.092 µM (active)

Cc1ccsc1/C=N/n1c(S)nnc1-c1ccco1
IC50 [23]: > 100 µM (inactive)
IC50 [24]: 1.79 µM (active)

C/C(=N\O)c1ccc2c3ccccc3n(C)c2c1
EC50 [15]: > 50 µM (not active)
